In patent publication US8809344B2, “Compounds, compositions, and methods for control of hepatitis C viral infections” (priority 2008, dated 2014) one finds EC50 data, which are given here for one compound.

The subject of the assay is genotype 1b (Con1 strain) replicon with NS4B F1809V mutation. In words: F1809V mutant reporter replicon IVT RNA in Huh7.5 cells. The assay is classed as cell-based. Particulars: Hepatitis C virus. From the text:
To identify nucleotide changes that confer resistance to 80978, replicon RNA was reverse transcribed and amplified from total RNA extracted from 80978-resistant and control Clone A cells. […] One silent mutation at amino acid 1771 was also observed. Each mutation was introduced independently into a stable genotype 1b (Con1 strain) subgenomic reporter replicon plasmid via site-directed mutagenesis. […] The sequence of the wild type NS4B encoding sequence is provided as SEQ ID NO:1, the sequence of the mutated NS4B nucleotide sequence encoding the F1809V mutation is provided as SEQ ID NO:3, and the sequence of the mutated NS4B nucleotide sequence encoding the F1809L mutation is provided as SEQ ID NO:5. The sequence of the wild type NS4B protein is provided as SEQ ID NO:2, the sequence of the mutated NS4B protein with the F1809V mutation is provided as SEQ ID NO:4, and the sequence of the mutated NS4B nucleotide sequence encoding the F1809L mutation is provided as SEQ ID NO:6. […] A differential response was observed between cells electroporated with different replicon RNAs.

Usually EC50 stands for the concentration that produces a half-maximal response. A lower EC50 goes with an effect from little substance. In turn, `O=C(NCc1cccs1)c1nn2c(c1Cl)N[C@H](c1ccco1)C[C@@H]2C(F)(F)F` (single isomer, unassigned) [Compound 80978] returned an EC50 above 22.5 µM.
